{"source": "patent US20100298448A1", "about": "“PENETRATION ENHANCERS FOR FUNGICIDAL AGENTS” (priority 2006, published 2010)", "details": "apple tree (Golden Delicious variety)", "experimental": "In this test, the penetration of active substances through enzymatically isolated cuticles of apple tree leaves was measured.\nLeaves which were cut off in the stage of full development of apple trees of the Golden Delicious variety were used. The isolation of the cuticles was effected in a manner such that • first leaf discs marked on the underside with dye and punched out were filled by means of vacuum infiltration with a pectinase solution (0.2 to 2% strength) buffered to a pH between 3 and 4, sodium azide was then added and • the leaf discs thus treated were allowed to stand until disintegration of the original leaf structure and detachment of the noncellular cuticle.\nThereafter, only those cuticles of the upper sides of the leaves which were free of staltoa and hairs were further used. They were washed several times alternately with water and a buffer solution at pH 7. The clean cuticles obtained were finally drawn onto small Teflon plates and smoothed and dried with a gentle air jet.\nIn the next step, the cuticle membranes thus obtained were placed in stainless steel diffusion cells (=transport chambers) for membrane transport investigations. For this purpose, the cuticles were placed by means of forceps centrally on the silicone grease-coated edges of the diffusion cells and closed with a likewise greased ring. The arrangement was chosen so that the morphological outside of the cuticles faced outwards, i.e. towards the air, while the original inside faced the interior of the diffusion cell. The diffusion cells were filled with water or with a mixture of water and solvent. […]\nAfter the application of the spray liquors, in each case the water was allowed to evaporate, and in each case the chambers were then turned around and were placed in thermostated trays, air having a defined temperature and atmospheric humidity being blown onto the outside of the cuticle. […] The active substance penetration was measured with radioactively marked active substance.", "data": [{"molecule": "CC(C)(C)C(O)(CCc1ccc(Cl)cc1)Cn1cncn1", "note": "(stereo not drawn) [Tebuconazole, tebuconazole]", "values": [{"measurement": "Penetration* after 5 hours [%]", "value": 2, "unit": "%"}, {"measurement": "Penetration* after 1 day [%]", "value": 8, "unit": "%"}, {"measurement": "Penetration** after 2 days [%]", "value": 15, "unit": "%"}]}]}
